Experimental data as given in US20100152044A1, “Plant growth regulation” (Bayer CropScience GmbH, priority 2004, published 2010).

Key:
[1] = test system: wheat (Triticum aestivum, variety TRISO); assay: Root growth assay, seed treatment, wheat; assay type: in vivo; settings: Root Growth of 100 is set as the standard, wet root weight 16 (±2) days post treatment
From the text: (§1) Plant roots are a highly proliferative tissue that allows an easy accessible, cheap and short term screening method for plant growth regulators. The results obtained can easily be transferred to the overall effects on a plant of plant growth regulators identified by such a system. By using this root assay one is enabled to determine the effect of a seed treatment to root growth and/or germination and/or changes in habitat of germinated plants in order to identify the possible use as a yield enhancer. Two seeds of wheat (Triticum aestivum, variety “TRISO”) or 1 seed of maize (Zea mays, variety “LORENZO”) per hole in a plastic tray which contains an architecture of 8×13 holes were placed on compost soil covered with sand. These seeds were treated with 100 μl/hole, which creates an application volume of approx. 1200 l/ha, of a compound solution at active ingredient rates equivalent to 100, 10 and 1 g a.i./ha of each compound using an robotic application system (Lizzy Spray Robotics). Six replicates in a row of each compound and concentration were done. The outer rim of the above defined plastic tray was untreated to avoid false negative effects and the middle row (No. 7) was used as untreated control. The treated seeds were allowed to dry for approx. 4 hours and subsequently covered with sand and watered. The trays were stored in climate chambers with 14 hours lighting at a temperature of 24° C. (±2) at daytime and 16° C. (±2) at night and relative humidity (rH) of 60% and daily watered. Assessments were done 16 (±2) days post treatment by counting the germinated plants and assessing the phytotoxicity symptoms and percentage. In addition, the roots were washed out and the shoots were cut directly above the seed and the wet roots were placed on dry paper towels for approximately 30 minutes and weighted afterwards. This procedure provides a similar grade of moisture to the roots so that a comparison of the weights is possible.
(§2) The effects observed concerning Root Growth given in column 2 (Root Growth of “100” is set as the standard) are directed to concentrations that are equivalent to 100, 10, 1 g a.i./ha, each.

[2] = test system: maize (Zea mays, variety LORENZO); assay: Root growth assay, seed treatment, maize; assay type: in vivo; settings: Root Growth of 100 is set as the standard, wet root weight 16 (±2) days post treatment
From the text: as §1, §2

Structure (SMILES)	Root Growth ([1]; 1 g a.i./ha)	Root Growth ([1]; 10 g a.i./ha)	Root Growth ([1]; 100 g a.i./ha)	Root Growth ([2]; 1 g a.i./ha)	Root Growth ([2]; 10 g a.i./ha)	Root Growth ([2]; 100 g a.i./ha)	melting point [°C]
Cn1cc(C2=C(c3cn(CCCN)c4ccccc34)C(=O)NC2=O)c2ccccc21 [Compound 11]	162	169	135	–	–	–	–
O=C1NC(=O)C(c2c[nH]c3ccccc23)=C1c1c[nH]c2ccccc12 [Compound 1, 3,4-Di-(1H-indol-3-yl)pyrrole-2,5-dione]	69	129	133	–	–	–	–
CN(C)CCCn1cc(C2=C(c3c[nH]c4ccccc34)C(=O)NC2=O)c2ccccc21 [Compound 8]	122	150	123	109	150	93	–
O=C1NC(=O)C(c2ccccc2)=C1Nc1ccc(Cl)c(Cl)c1 [Compound 1.2, 3-(3,4-dichlorophenylamino)-4-phenylpyrrole-2,5-dione]	–	–	–	130	117	141	242
O=C1NC(=O)C(c2ccccc2)=C1Nc1ccc(OC(F)(F)F)cc1 [Compound 1.6, 3-Phenyl-4-(4-trifluoromethoxyphenylamino)pyrrole-2,5-dione]	–	–	–	–	–	–	206
Cn1cc(C2=C(c3c4n(c5ccccc35)CCC(CN)C4)C(=O)NC2=O)c2ccccc21 (stereo not drawn) [Compound 12]	126	150	141	–	–	–	–
O=C1NC(=O)C(c2c(Cl)cccc2Cl)=C1Nc1cccc(Cl)c1 [Compound 1.20]	–	–	–	142	114	125	–
O=C1NC(=O)C(c2ccccc2C(F)(F)F)=C1Nc1ccc(O)c(Cl)c1 [Compound 1.8]	–	–	–	114	144	123	–
O=C1NC(=O)C(c2cc(Cl)sc2Cl)=C1Nc1ccc(O)c(Cl)c1 [Compound 1.10]	101	134	77	–	–	–	–
O=C1NC(=O)C(c2ccc(Cl)cc2)=C1Nc1ccc(O)c(C(=O)O)c1 [Compound 1.12]	–	–	–	122	172	199	–
O=C1NC(=O)C(c2ccc(Cl)cc2)=C1Nc1ccc(C(=O)O)cc1 [Compound 1.19]	148	183	91	–	–	–	–
Cc1ccc(NC2=C(c3ccc(Br)cc3)C(=O)NC2=O)cc1Cl [Compound 1.16]	84	171	129	113	112	158	–
O=C1NC(=O)C(c2ccccc2)=C1Nc1cccc(Cl)c1 [Compound 1.1, 3-(3-Chlorophenylamino)-4-phenylpyrrole-2,5-dione]	–	–	–	–	–	–	187
